Measured values published in patent publication US8916702B2 (priority 2012, dated 2014).

These molecules were tested on HCV pseudoparticles (genotype 1a HCV E1 and E2 envelope, H77C isolate) (assay: microbe, parasite or virus in culture). Settings: Hepatitis C virus, Huh-7, 48 h, HCV pseudoparticle infection of Huh7 cells, luciferase 2 days after infection; average of duplicates.
Format: cell-based

Row | Compound | EC50 [nM]
1 | COC(=O)[C@H](CNC(=O)C(=O)NCc1cc(F)cc(F)c1)NC(=O)c1ccc(Nc2nc(NC3(c4ccc(Cl)cc4)CC3)nc(OCC(F)(F)F)n2)cc1 [Compound 1138] | 0.81
2 | COC(=O)[C@H](CNC(=O)C(=O)NC1CCCCC1C)NC(=O)c1ccc(Nc2nc(NC3(c4ccc(Cl)cc4)CC3)nc(OCC(F)(F)F)n2)cc1 (stereo partly shown) [Compound 1061] | 1.58
3 | COC(=O)[C@H](CNC(=O)C(=O)Nc1ccc(OC)nc1)NC(=O)c1ccc(Nc2nc(NC3(c4ccc(Cl)cc4)CC3)nc(OCC(F)(F)F)n2)cc1 [Compound 1242] | 0.32

Same assay, conditions: Hepatitis C virus, Huh-7, 48 h, HCV pseudoparticles (genotype 1a, H77C) in Huh7 cells; average of duplicate; luciferase 2 days after infection

Row | Compound | EC50 [nM]
4 | C#Cc1ccc(NC(=O)C(=O)NC[C@H](NC(=O)c2ccc(Nc3nc(NC4(c5ccc(Cl)cc5)CC4)nc(OCC(F)(F)F)n3)cc2)C(=O)OC)cc1 [Compound 3100] | 0.27
5 | O=C(Nc1cccc(F)c1)C(=O)N[C@H](CCNC(=O)c1ccc(Nc2nc(NC3(c4ccc(Cl)cc4)CC3)nc(OCC(F)(F)F)n2)cc1)C(=O)O [Compound 3492, (R)-4-(4-((4-((1-(4-chlorophenyl)cyclopropyl)amino)-6-(2,2,2-trifluoroethoxy)-1,3,5-triazin-2-yl)amino)benzamido)-2-(2-((3-fluorophenyl)amino)-2-oxoacetamido)butanoic acid] | 0.33

Same assay, conditions: Hepatitis C virus, Huh-7, 48 h, HCV pseudoparticles, Huh7 cells, luciferase 2 days after infection; average of duplicates

Row | Compound | EC50 [nM]
6 | O=C(NC[C@H](NC(=O)c1ccc(Nc2nc(NC3(c4ccc(Cl)cc4)CC3)nc(OCC(F)(F)F)n2)cc1)C(=O)O)C(=O)Nc1cccc(-c2ncc[nH]2)c1 [Compound 3765] | 0.68

Same assay, conditions: Hepatitis C virus, Huh-7, 48 h, read-out: Activity (EC50 class), HCV pseudoparticle infection of Huh7 cells, luciferase 2 days after infection; EC50 expressed as class A/B

Row | Compound | EC50 [nM]
7 | COC(=O)[C@H](CCNC(=O)C(=O)N[C@H]1C[C@H]2C[C@@H]([C@H]1C)C2(C)C)NC(=O)c1ccc(Nc2nc(NC3(c4ccc(Cl)cc4)CC3)nc(OCC(F)(F)F)n2)cc1 [Compound 1074] | 0.01 to 10
8 | CCCc1ccc(NC(=O)C(=O)NCC(C)(C)CNC(=O)c2ccc(Nc3nc(NC4(c5ccc(Cl)cc5)CC4)nc(OCC(F)(F)F)n3)cc2)cc1 [Compound 1573] | 0.01 to 10
9 | CC(C)(CNC(=O)C(=O)Nc1ccc(C2CCCCC2)cc1)CNC(=O)c1ccc(Nc2nc(NC3(c4ccc(Cl)cc4)CC3)nc(OCC(F)(F)F)n2)cc1 [Compound 1584] | 0.01 to 10
10 | COC(=O)[C@@H](CCNC(=O)C(=O)NCC1CC1c1ccc(F)cc1)NC(=O)c1ccc(Nc2nc(NC3(c4ccc(Cl)cc4)CC3)nc(OCC(F)(F)F)n2)cc1 (stereo partly shown) [Compound 1389] | 0.01 to 10
11 | COC(=O)[C@H](CNC(=O)C(=O)NCc1cc(F)cc(F)c1)NC(=O)c1ccc(Nc2nc(NC3(c4ccc(Cl)cc4)CC3)nc(OCC(F)(F)F)n2)cc1 [Compound 1138] | 0.01 to 10
12 | O=C(NCc1ccc(F)cc1)C(=O)NC[C@H](NC(=O)c1ccc(Nc2nc(NC3(c4ccc(Cl)cc4)CC3)nc(OCC(F)(F)F)n2)cc1)C(=O)O [Compound 1166] | 0.01 to 10
13 | COC(=O)[C@H](CNC(=O)C(=O)NC1CCCCC1C)NC(=O)c1ccc(Nc2nc(NC3(c4ccc(Cl)cc4)CC3)nc(OCC(F)(F)F)n2)cc1 (stereo partly shown) [Compound 1061] | 0.01 to 10
14 | O=C(NCC[C@H](NC(=O)c1ccc(Nc2nc(NC3(c4ccc(Cl)cc4)CC3)nc(OCC(F)(F)F)n2)cc1)C(=O)O)C(=O)NCC1(Cn2cccn2)CC1 [Compound 1428] | 0.01 to 10
15 | CC(C)OC(=O)c1ccc(-c2ccc(NC(=O)C(=O)NCC(C)(C)CNC(=O)c3ccc(Nc4nc(NC5(c6ccc(Cl)cc6)CC5)nc(OCC(F)(F)F)n4)cc3)cc2)cc1 [Compound 1488] | 0.01 to 10
16 | COc1ccccc1CCNC(=O)C(=O)NCC[C@H](NC(=O)c1ccc(Nc2nc(NC3(c4ccc(Cl)cc4)CC3)nc(OCC(F)(F)F)n2)cc1)C(=O)O [Compound 1329] | 0.01 to 10
17 | COC(=O)[C@@H](CCNC(=O)C(=O)NCC1CC1c1cccc(OC)c1)NC(=O)c1ccc(Nc2nc(NC3(c4ccc(Cl)cc4)CC3)nc(OCC(F)(F)F)n2)cc1 (stereo partly shown) [Compound 1416] | 0.01 to 10
18 | COC(=O)[C@@H](CCNC(=O)C(=O)Nc1ccc(-c2noc(C)n2)cc1)NC(=O)c1ccc(Nc2nc(NC3(c4ccc(Cl)cc4)CC3)nc(OCC(F)(F)F)n2)cc1 [Compound 1529] | 0.01 to 10
19 | COC(=O)[C@H](CNC(=O)C(=O)NCCn1ccnc1C)NC(=O)c1ccc(Nc2nc(NC3(c4ccc(Cl)cc4)CC3)nc(OCC(F)(F)F)n2)cc1 [Compound 1301] | 0.01 to 10
20 | COC(=O)[C@H](CNC(=O)C(=O)NCCc1ccc(OC)cc1)NC(=O)c1ccc(Nc2nc(NC3(c4ccc(Cl)cc4)CC3)nc(OCC(F)(F)F)n2)cc1 [Compound 1287] | 0.01 to 10
21 | COc1cc(OC)nc(-c2ccc(NC(=O)C(=O)NCC(C)(C)CNC(=O)c3ccc(Nc4nc(NC5(c6ccc(Cl)cc6)CC5)nc(OCC(F)(F)F)n4)cc3)cc2)n1 [Compound 1596] | 0.01 to 10
22 | COC(=O)[C@H](CNC(=O)C(=O)Nc1ccc(OC)nc1)NC(=O)c1ccc(Nc2nc(NC3(c4ccc(Cl)cc4)CC3)nc(OCC(F)(F)F)n2)cc1 [Compound 1242] | 0.01 to 10
23 | COC(=O)[C@H](CCNC(=O)C(=O)NC1CCC(F)(F)CC1)NC(=O)c1ccc(Nc2nc(NC3(c4ccc(Cl)cc4)CC3)nc(OCC(F)(F)F)n2)cc1 [Compound 1099] | 0.01 to 10
24 | COC(=O)[C@H](CCNC(=O)C(=O)Nc1cccnc1OC)NC(=O)c1ccc(Nc2nc(NC3(c4ccc(Cl)cc4)CC3)nc(OCC(F)(F)F)n2)cc1 [Compound 1216] | 0.01 to 10
25 | CC(C)(CNC(=O)C(=O)Nc1ccc(Cc2ccccc2)cc1)CNC(=O)c1ccc(Nc2nc(NC3(c4ccc(Cl)cc4)CC3)nc(OCC(F)(F)F)n2)cc1 [Compound 1579] | 0.01 to 10
26 | CC(C)(CNC(=O)C(=O)Nc1ccc(F)cc1F)CNC(=O)c1ccc(Nc2nc(NC3(c4ccc(Cl)cc4)CC3)nc(OCC(F)(F)F)n2)cc1 [Compound 1539] | 0.01 to 10
27 | Cn1ccnc1NC(=O)C(=O)NC[C@H](NC(=O)c1ccc(Nc2nc(NC3(c4ccc(Cl)cc4)CC3)nc(OCC(F)(F)F)n2)cc1)C(=O)O [Compound 1352] | 0.01 to 10
28 | COC(=O)[C@H](CNC(=O)C(=O)Nn1cnnc1)NC(=O)c1ccc(Nc2nc(NC3(c4ccc(Cl)cc4)CC3)nc(OCC(F)(F)F)n2)cc1 [Compound 1243] | 10 to 1000

Same assay, conditions: Hepatitis C virus, Huh-7, 48 h, read-out: Activity (EC50 class), HCV pseudoparticles, Huh7 cells, luciferase 2 days after infection; average of duplicates

Row | Compound | EC50 [nM]
29 | O=C(NC[C@H](NC(=O)c1ccc(Nc2nc(NC3(c4ccc(Cl)cc4)CC3)nc(OCC(F)(F)F)n2)cc1)C(=O)Cl)C(=O)Nc1cccc(-c2c[nH]cn2)c1 [Compound 3787] | 0.01 to 10
30 | O=C(NC[C@H](NC(=O)c1ccc(Nc2nc(NC3(c4ccc(Cl)cc4)CC3)nc(OCC(F)(F)F)n2)cc1)C(=O)Cl)C(=O)Nc1cccc(Oc2cccnc2)c1 [Compound 3792] | 0.01 to 10
31 | O=C(NCC[C@H](NC(=O)c1ccc(Nc2nc(NC3(c4ccc(Cl)cc4)CC3)nc(OCC(F)(F)F)n2)cc1)C(=O)O)C(=O)Nc1cccc(Oc2cccnc2)c1 [Compound 3662] | 0.01 to 10
32 | O=C(NC[C@H](NC(=O)c1ccc(Nc2nc(NC3(c4ccc(Cl)cc4)CC3)nc(OCC(F)(F)F)n2)cc1)C(=O)O)C(=O)Nc1cccc(-c2ncc[nH]2)c1 [Compound 3765] | 0.01 to 10
33 | Nc1ccc(NC(=O)C(=O)NC[C@H](NC(=O)c2ccc(Nc3nc(NC4(c5ccc(Cl)cc5)CC4)nc(OCC(F)(F)F)n3)cc2)C(=O)O)nc1 [Compound 3761] | 0.01 to 10
34 | Cn1cnnc1-c1cccc(NC(=O)C(=O)NCC[C@H](NC(=O)c2ccc(Nc3nc(NC4(c5ccc(Cl)cc5)CC4)nc(OCC(F)(F)F)n3)cc2)C(=O)O)c1 [Compound 3643] | 10 to 1000

Same assay, conditions: Hepatitis C virus, Huh-7, read-out: Activity (EC50 class), HCV pseudoparticles (genotype 1a, H77C) in Huh7 cells; EC50 expressed as class A/B

Row | Compound | EC50 [nM]
35 | O=C(NC/C(=N/C(=O)c1ccc(Nc2nc(NC3(c4ccc(Cl)cc4)CC3)nc(OCC(F)(F)F)n2)cc1)C(=O)O)C(=O)Nc1ccc(Cc2ccccc2)cc1 [Compound 3159] | 0.01 to 10
36 | COC(=O)/C(CCNC(=O)C(=O)Nc1cccc(Cc2ccccc2)c1)=N\C(=O)c1ccc(Nc2nc(NC3(c4ccc(Cl)cc4)CC3)nc(OCC(F)(F)F)n2)cc1 [Compound 3592] | 10 to 1000
37 | Cc1ccc(NC(=O)C(=O)N(C)CCCN(C)C(=O)c2ccc(Nc3nc(NC4(c5ccc(Cl)cc5)CC4)nc(OCC(F)(F)F)n3)cc2)cc1Cl [Compound 3434] | 0.01 to 10
38 | COC(=O)[C@H](CCNC(=O)C(=O)NC1CCC(S(C)(=O)=O)CC1)NC(=O)c1ccc(Nc2nc(NC3(c4ccc(Cl)cc4)CC3)nc(OCC(F)(F)F)n2)cc1 (stereo partly shown) [Compound 3119] | 0.01 to 10
39 | CC(C)(CNC(=O)C(=O)Nc1ccccc1-n1cnnn1)CNC(=O)c1ccc(Nc2nc(NC3(c4ccc(Cl)cc4)CC3)nc(OCC(F)(F)F)n2)cc1 [Compound 3046] | 0.01 to 10
40 | COC(=O)[C@H](CCNC(=O)C(=O)Nc1ccc(C(=O)N2CCOCC2)cc1)NC(=O)c1ccc(Nc2nc(NC3(c4ccc(Cl)cc4)CC3)nc(OCC(F)(F)F)n2)cc1 [Compound 3128] | 0.01 to 10
41 | CCOc1ccc(NC(=O)C(=O)NCC[C@H](NC(=O)c2ccc(Nc3nc(NC4(c5ccc(Cl)cc5)CC4)nc(OCC(F)(F)F)n3)cc2)C(=O)O)cc1 [Compound 3548] | 0.01 to 10
42 | CC(C)CNC(=O)C(=O)NCC(O)CNC(=O)c1ccc(Nc2nc(NC3(c4ccc(Cl)cc4)CC3)nc(OCC(F)(F)F)n2)cc1 (stereo not shown) [Compound 3467] | 0.01 to 10
43 | CC(C)(CNC(=O)C(=O)Nc1ncc(F)s1)CNC(=O)c1ccc(Nc2nc(NC3(c4ccc(Cl)cc4)CC3)nc(OCC(F)(F)F)n2)cc1 [Compound 3239] | 0.01 to 10
44 | Cc1ccc(NC(=O)C(=O)NC(C)(C)CNC(=O)c2ccc(Nc3nc(NC4(c5ccc(Cl)cc5)CC4)nc(OCC(F)(F)F)n3)cc2)cc1Cl [Compound 3441] | 0.01 to 10
45 | O=C(NCCCCNC(=O)c1ccc(Nc2nc(NC3(c4ccc(Cl)cc4)CC3)nc(OCC(F)(F)F)n2)cc1)C(=O)N1CCCCC1 [Compound 3401] | 0.01 to 10
46 | CC(C)(CNC(=O)C(=O)Nc1ccccc1-c1ccccc1)CNC(=O)c1ccc(Nc2nc(NC3(c4ccc(Cl)cc4)CC3)nc(OCC(F)(F)F)n2)cc1F [Compound 3556] | 0.01 to 10
47 | C#Cc1ccc(NC(=O)C(=O)NC[C@H](NC(=O)c2ccc(Nc3nc(NC4(c5ccc(Cl)cc5)CC4)nc(OCC(F)(F)F)n3)cc2)C(=O)OC)cc1 [Compound 3100] | 0.01 to 10
48 | COC(=O)[C@H](CNC(=O)C(=O)Nc1ccc(N(C)c2nc(C)cc(C)n2)cc1)NC(=O)c1ccc(Nc2nc(NC3(c4ccc(Cl)cc4)CC3)nc(OCC(F)(F)F)n2)cc1 [Compound 3104] | 0.01 to 10
49 | COC(=O)[C@@H](CCNC(=O)C(=O)Nc1cccc(OCc2ccccc2)c1)NC(=O)c1ccc(Nc2nc(NC3(c4ccc(Cl)cc4)CC3)nc(OCC(F)(F)F)n2)cc1 [Compound 3571] | 0.01 to 10
50 | CC(C)(CNC(=O)C(=O)Nc1ccc(C(F)(F)F)c(F)c1)CNC(=O)c1ccc(Nc2nc(NC3(c4ccc(Cl)cc4)CC3)nc(OCC(F)(F)F)n2)cc1 [Compound 3250] | 0.01 to 10
51 | CCOc1ccc(NC(=O)C(=O)NCC[C@H](NC(=O)c2ccc(Nc3nc(NC4(c5ccc(Cl)cc5)CC4)nc(OCC(F)(F)F)n3)cc2)C(=O)OC)cc1 [Compound 3327] | 0.01 to 10
52 | O=C(Nc1cccc(F)c1)C(=O)N[C@H](CCNC(=O)c1ccc(Nc2nc(NC3(c4ccc(Cl)cc4)CC3)nc(OCC(F)(F)F)n2)cc1)C(=O)O [Compound 3492, (R)-4-(4-((4-((1-(4-chlorophenyl)cyclopropyl)amino)-6-(2,2,2-trifluoroethoxy)-1,3,5-triazin-2-yl)amino)benzamido)-2-(2-((3-fluorophenyl)amino)-2-oxoacetamido)butanoic acid] | 0.01 to 10
